{
  "source": "patent US20250092383A1",
  "about": "“COMPOUNDS AND METHODS FOR FBXO22-MEDIATED PROTEIN DEGRADATION” (Northwestern University, priority 2023, published 2025)",
  "type_in_all_cases": "cell-based",
  "key": {"[1]": {"target": "T1, FKBP12 (Homo sapiens, UniProt P62942)", "T1 sequence (P62942 whole entry)": "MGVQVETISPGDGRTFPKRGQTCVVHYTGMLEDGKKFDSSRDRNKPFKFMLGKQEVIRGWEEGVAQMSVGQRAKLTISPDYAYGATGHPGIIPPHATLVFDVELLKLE", "assay": "MS-based global proteomic analysis in A549 parental and FBXO22 knockout cells (FKBP12)", "parameters": "expressed in transfected cells", "conditions": "2 μM, 24 hours", "protocol": "(§1) The bar graph represents quantification of the FLAG-FKBP12/HSP90 protein content. Data are presented as the mean values±s.e.m. […] HEK293T cells expressing HA-FBXO22 were treated with 0.025-15 μM 22-SLF for 8 h. The graph represents quantification of the FLAG-FKBP12/HSP90 protein content. Data are presented as the mean values (n=2 biological independent samples). […] The bar graph represents quantification of the FLAG-FKBP12/HSP90 protein content. KO, knockout; WT, wild type. Data are presented as the mean values (n=2 biological independent samples). […] The bar graph represents quantification of the FLAG-FKBP12/HSP90 protein content. Data are presented as the mean values±s.e.m. […] The result is representative of two independent experiments with similar results. WCL, whole-cell lysate; IP, immunoprecipitate.\n(§2) Data is obtained from Gene Expression Profiling Interactive Analysis (GEPIA). […] KDM4A and KDM4B are two reported substrates of FBXO22.\n(§3) As an F-box protein, FBXO22 is a pivotal player in the context of tumor progression. FBXO22 has many oncogenic functions, including propelling the ubiquitination and subsequent degradation of a diverse spectrum of substrates, such as histone lysine demethylase 4 subfamily KDM4A/B, methylated p53, p21, PTEN, KLF4, and LKB1. […]"}, "[2]": {"target": "T1, FKBP12", "assay": "Degradation of endogenous FKBP12 in cancer cell lines, wild type vs FBXO22 knockout", "protocol": "as §1, §2, §3"}, "[3]": {"target": "T2, FKBP12-EGFP (Homo sapiens, UniProt P62942)", "T2 construct": "expressed in transfected cells", "T2 sequence (P62942 whole entry)": "as above", "assay": "Fluorescence quantification of FKBP12-EGFP levels in HEK293T cells", "conditions": "HEK293T CRISPR activation cells with FBXO22-activating sgRNAs; 2 μM, 24 hours", "protocol": "(§4) FIGS. 1A-1E show an E3 ligase focused CRISPR-Cas9 transcriptional activation screen identifies FBXO22 that supports 22-SLF-induced reduction in FKBP12-EGFP expression levels. FIG. 1A is a schematic representation of the steps in the CRISPR-Cas9 transcriptional activation screen. […] FIG. 1C is a volcano plot showing the E3 ligase focused CRISPR-Cas9 transcriptional activation screen for FKBP12-EGFP degradation after treatment of 2 μM 22-SLF in HEK293T CRISPR-Cas9 transcriptional activation cells for 24 hours. […] The statistical significance was evaluated through unpaired two-tailed Student's t-tests, comparing cells transduced with FBXO22 sgRNA to control sgRNA. Statistical significance denoted ****P<0.0001. […] The statistical significance was evaluated through unpaired two-tailed Student's t-tests, comparing cells treated with 22-SLF to DMSO. Statistical significance denoted as ***P<0.001 and ns: not significant.\nFIGS. 6A-6E show generation of CRISPR-Cas9 transcriptional activation cells for the discovery of E3 ligases supporting the degradation of FKBP12-EGFP. […] The statistical significance was evaluated through unpaired two-tailed Student's t-tests, comparing cells treated with Len-SLF or SLF to DMSO. […] The statistical significance was evaluated through unpaired two-tailed Student's t-tests, comparing cells transduced with IL-1β sgRNA to control sgRNA. […]"}, "[4]": {"target": "T2, FKBP12-EGFP", "assay": "E3 ligase focused CRISPR-Cas9 transcriptional activation screen for FKBP12-EGFP degradation", "conditions": "2 μM 22-SLF, 24 hours, HEK293T CRISPR-Cas9 transcriptional activation cells", "protocol": "as §4\nWith the CRISPR-Cas9 transcriptional activation cells, a CRISPR-Cas9 transcriptional activation pool screen was developed to identify E3 ligases that support FKBP12 degradation by FKBP12-directed heterobifunctional compounds. […] Subsequently, cells from the bottom 15% of the GFP population were isolated using fluorescence-activated cell sorting (FIG. 1a and FIG. 7). […]"}},
  "data": [
    {"smiles": "CCC(C)(C)C(=O)C(=O)N1CCCC[C@H]1C(=O)O[C@H](CCc1ccc(OC)c(OC)c1)c1cccc(OCC(=O)NCCCOCCOCCOCCCN(C(=O)CCl)C(C(=O)NCc2ccccc2)c2nc3ccccc3s2)c1", "note": "(some centres unmarked) [22-SLF]", "values": [
      {"measurement": "Selectivity of FKBP12 degradation in global proteomics", "setting": "[1]", "result": "selective degradation of endogenous FKBP12 in FBXO22 wildtype, but not knockout context"},
      {"measurement": "Degradation of endogenous FKBP12, wild-type cells", "setting": "[2]; A549, MDA-MB-231 and PC3, 2 μM in A549", "result": "promoted degradation of endogenous FKBP12"},
      {"measurement": "Degradation of endogenous FKBP12, FBXO22 knockout cells", "setting": "[2]; A549, MDA-MB-231 and PC3 FBXO22 knockout", "result": "abolished upon FBXO22 knockout"},
      {"measurement": "FKBP12-EGFP expression in FBXO22-activated cells", "setting": "[3]", "result": "loss of FKBP12-EGFP expression"},
      {"measurement": "Enrichment of sgRNAs in sorted low-GFP cells", "setting": "[4]", "result": "substantial enrichment of two distinct sgRNAs targeting the same E3 ligase, FBXO22"}
    ]}
  ]
}
